Data: publication PMC7904743, “WIDOCK: a reactive docking protocol for virtual screening of covalent inhibitors” (Journal of Computer-Aided Molecular Design, 2021)
Where two headings read alike, the source gives them in different places.

What was measured:
MurA [1] = target: T1, MurA (Escherichia coli, UniProt P0A749); conditions: residual activity at 100 μM, single point; cited from earlier work
CatB [2] = target: T2, CatB (Homo sapiens, UniProt P07858); design: method as in PMID 30321804; conditions: residual activity at 100 μM, single point; cited from earlier work
MurA [3] = target: T1, MurA; experiment: biochemical; conditions: read-out: RA
Protocol: (§1) These fragments were measured in single point enzyme activity assays at 100 μM concentration against MurA and CatB.

[4] = cited from earlier work; for GSH half-life: half-life of adduct formation with L-glutathione
[5] = Kinetic measurement of adduct formation with L-glutathione (GSH) by HPLC–MS; type: physicochemical; design: unit not given here
Protocol: Electrophilic fragments tested against MurA, CatB and MAO-A (25–53, structures shown in Supporting Figure S2 and SMILES provided in Supporting Table S1) represent eight different warhead chemotypes reacting via two reaction mechanisms: Michael-type nucleophilic addition and nucleophilic substitution. The intrinsic thiol reactivities (see Table 1) were determined by kinetic measurement of adduct formation with L-glutathione (GSH), a widely used cysteine surrogate, by an HPLC–MS methodology, as described in the referred study.

[6] = target: T3, Recombinant human microsomal MAO-A (Homo sapiens, UniProt P21397); experiment: MAO-A activity assay (fluorimetric, Amplex Red, p-tyramine); type: biochemical; conditions: MAO-A residual activity; active if lower than 60%
T3 construct: purchased Sigma Aldrich; host or cells: baculovirus infected insect cells (BTI-TN-5B1-4)
T3 sequence (P21397 1-527): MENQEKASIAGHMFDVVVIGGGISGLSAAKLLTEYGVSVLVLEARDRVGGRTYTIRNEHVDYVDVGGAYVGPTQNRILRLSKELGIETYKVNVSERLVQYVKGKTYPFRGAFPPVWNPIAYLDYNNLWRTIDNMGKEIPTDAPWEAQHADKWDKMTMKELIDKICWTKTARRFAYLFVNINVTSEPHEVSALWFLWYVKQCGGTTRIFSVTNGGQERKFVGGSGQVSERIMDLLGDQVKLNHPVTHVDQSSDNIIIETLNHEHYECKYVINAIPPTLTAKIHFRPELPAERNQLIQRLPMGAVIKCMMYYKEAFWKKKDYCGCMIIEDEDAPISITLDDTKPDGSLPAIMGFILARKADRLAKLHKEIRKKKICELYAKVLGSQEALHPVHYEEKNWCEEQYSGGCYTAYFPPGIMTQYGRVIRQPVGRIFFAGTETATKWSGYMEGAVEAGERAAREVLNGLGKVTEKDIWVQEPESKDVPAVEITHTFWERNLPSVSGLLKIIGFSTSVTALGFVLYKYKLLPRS
Protocol: The effects of the test compounds on MAO-A were investigated using a fluorimetric assay, following a previously described methodology. The inhibitory activity of the compounds was evaluated by their effects on the production of hydrogen peroxide (H2O2) from p-tyramine. The production of H2O2 was detected using Amplex Red reagent in the presence of horseradish peroxidase, where a highly sensitive fluorescent product, resorufin, is produced at stoichiometric amounts. Recombinant human microsomal MAO-A enzyme expressed in baculovirus infected insect cells (BTI-TN-5B1-4), horse-radish peroxidase (type II, lyophilized powder), and p-tyramine hydrochloride were obtained from Sigma Aldrich. 10-Acetyl-3,7-dihydroxyphenoxazine (Amplex Red reagent) was synthesized as described in the literature.
Briefly, 100 µL 50 mM sodium phosphate buffer (pH 7.4, 0.05% Triton X-114) containing the compounds and MAO-A were incubated for 30 min at 37 °C in a flat-bottomed black 96-well microplate, and placed in a dark microplate reader chamber. After the pre-incubation, the reaction was started by adding the final concentrations of 200 µM Amplex Red reagent, 2 U/mL horseradish peroxidase, and 1 mM p-tyramine (final volume, 200 µL). The production of resorufin was quantified based on the fluorescence generated (λex = 530 nm, λem = 590 nm) at 37 °C over a period of 30 min, during which time the fluorescence increased linearly. For control experiments, DMSO was used instead of the appropriate dilutions of the compounds in DMSO. To determine the blank value (b), phosphate-buffered solution replaced the enzyme solution. The initial velocities were calculated from the trends obtained, with each measurement carried out in duplicate. The specific fluorescence emission to obtain the final result was calculated after subtraction of the blank activity (b).

CatB [7] = target: T2, CatB; experiment: CatB single point enzyme activity assay (residual activity); conditions: read-out: RA
Protocol: as §1

OTUB2 = conditions: experimental actives if % labeling higher than 50%, cited from earlier work
[8] = thiol reactivity, cited from earlier work
NUDT7 = conditions: protein labeling at 200 μM; experimental actives if % labeling higher than 50%; cited from earlier work
[9] = natural log of average rate constant k
[10] = natural logarithm of average rate constant
[11] = natural log of average kinetic rate constant
[12] = natural log of average rate constant

T1 sequence (P0A749 whole entry): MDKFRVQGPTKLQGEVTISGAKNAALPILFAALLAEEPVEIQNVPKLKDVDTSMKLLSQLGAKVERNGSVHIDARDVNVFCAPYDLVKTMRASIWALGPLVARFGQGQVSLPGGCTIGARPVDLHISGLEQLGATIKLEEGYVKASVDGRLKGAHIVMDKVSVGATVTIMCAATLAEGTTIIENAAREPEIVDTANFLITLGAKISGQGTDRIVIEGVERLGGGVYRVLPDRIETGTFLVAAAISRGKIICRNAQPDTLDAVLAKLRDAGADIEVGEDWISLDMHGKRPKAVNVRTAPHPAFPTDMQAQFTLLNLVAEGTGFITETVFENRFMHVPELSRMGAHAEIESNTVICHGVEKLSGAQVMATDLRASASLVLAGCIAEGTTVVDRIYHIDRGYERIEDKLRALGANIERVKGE

SMILES | OTUB2 % labeling (OTUB2) | ln(avg k) [8, 9] | ln(avg k) [8, 10] | NUDT7 % labeling (NUDT7) | OTUB2 % labeling (OTUB2; OTUB2 protein labeling) | ln(avg k) [8, 11] | ln(avg k) [8, 12] | further results
COc1cc(NC(=O)CCl)cc(OC)c1 [Compound 51, COc1cc(NC(=O)CCl)cc(OC)c1] | – | – | – | – | – | – | – | MurA RA (%) (MurA [1]): 61%; CatB RA (%) (CatB [2]): 87%; remaining activity at 100 µM (MurA [3]): 61%; GSH half-life [4]: 22.9 h; Reactivity, Experimental ln(k) vs GSH [5]: -3.498; RA [6]: 69%; remaining activity at 100 µM (CatB [7]): 87%
CC(Br)C(=O)Nc1cc(C(F)(F)F)cc(C(F)(F)F)c1 (stereo not drawn) [Compound 50, CC(Br)C(=O)Nc1cc(C(F)(F)F)cc(C(F)(F)F)c1] | – | – | – | – | – | – | – | MurA RA (%) (MurA [1]): 35%; CatB RA (%) (CatB [2]): 91%; remaining activity at 100 µM (MurA [3]): 35%; GSH half-life [4]: 95.2 h; Reactivity, Experimental ln(k) vs GSH [5]: -4.922; RA [6]: 83%; remaining activity at 100 µM (CatB [7]): 91%
C=CS(=O)(=O)c1ccccc1 [Compound 34, C=CS(=O)(=O)c1ccccc1] | – | – | – | – | – | – | – | MurA RA (%) (MurA [1]): 12%; CatB RA (%) (CatB [2]): 87%; remaining activity at 100 µM (MurA [3]): 12%; lnk ([4]; […]): 1.45; RA [6]: 52%; remaining activity at 100 µM (CatB [7]): 87%
C=CC(=O)Nc1ccccc1 [Compound 30, C=CC(=O)Nc1ccccc1] | – | – | – | – | – | – | – | MurA RA (%) (MurA [1]): 78%; CatB RA (%) (CatB [2]): 88%; remaining activity at 100 µM (MurA [3]): 78%; RA [6]: 99%; remaining activity at 100 µM (CatB [7]): 88%
O=C(CCl)Nc1ccccc1 [Compound 48, O=C(CCl)Nc1ccccc1] | – | – | – | – | – | – | – | MurA RA (%) (MurA [1]): 110%; CatB RA (%) (CatB [2]): 88%; remaining activity at 100 µM (MurA [3]): 110%; RA [6]: 95%; remaining activity at 100 µM (CatB [7]): 88%
COC(=O)/C=C/C(=O)OC [Compound 25, COC(=O)/C=C/C(=O)OC] | – | – | – | – | – | – | – | MurA RA (%) (MurA [1]): 50%; CatB RA (%) (CatB [2]): 106%; remaining activity at 100 µM (MurA [3]): 50%; RA [6]: 80%; remaining activity at 100 µM (CatB [7]): 106%
O=C(CCl)N1CCc2ccccc21 [PCM-0102160, O=C(CCl)N1CCc2ccccc21] | 0% | -15.869 | -15.869 | 0% | – | – | – | –
O=C(CCl)NC1CCN(C2CC2)CC1 [PCM-0103055, O=C(CCl)NC1CCN(C2CC2)CC1] | – | – | – | 0% | 0% | -16.125 | -16.125 | –
CC(C)(C)OC(=O)N1CCCC(CNC(=O)CCl)C1 (stereo not drawn) [PCM-0102923, CC(C)(C)OC(=O)N1CCCC(CNC(=O)CCl)C1] | – | – | – | 0% | 20% | -16.613 | -16.613 | –
O=C(CCl)Nc1ccccc1F [PCM-0102158, O=C(CCl)Nc1ccccc1F] | 51% | -16.146 | -16.146 | 0% | – | – | – | –
CN(Cc1cccc(C(F)(F)F)c1)C(=O)CCl [PCM-0102987, CN(Cc1cccc(C(F)(F)F)c1)C(=O)CCl] | – | – | – | 9% | 0% | -15.786 | -15.786 | –
O=C(CCl)N1CCN(S(=O)(=O)c2ccc(F)cc2)CC1 [PCM-0102237, O=C(CCl)N1CCN(S(=O)(=O)c2ccc(F)cc2)CC1] | 0% | -16.014 | -16.014 | 6% | – | – | – | –
O=C(CCl)N(C1=CCCCC1)C1CC1 [PCM-0102745, O=C(CCl)N(C1=CCCCC1)C1CC1] | – | – | – | 0% | 0% | -16.466 | -16.466 | –
O=C(CCl)NCC1CCOC1 (stereo not drawn) [PCM-0102596, O=C(CCl)NCC1CCOC1] | 13% | -16.248 | -16.248 | 0% | – | – | – | –
Cc1ccc(Cl)cc1NC(=O)CCl [PCM-0102354, Cc1ccc(Cl)cc1NC(=O)CCl] | 0% | -16.394 | -16.394 | 0% | – | – | – | –
CN(C(=O)CCl)C1CCCc2ccccc21 (stereo not drawn) [PCM-0102703, CN(C(=O)CCl)C1CCCc2ccccc21] | 0% | – | -15.771 | 30% | – | – | -15.771 | –
O=C(CCl)N1CCN(S(=O)(=O)c2ccc(Cl)cc2)CC1 [PCM-0102704, O=C(CCl)N1CCN(S(=O)(=O)c2ccc(Cl)cc2)CC1] | 0% | – | -15.137 | 25% | – | – | -15.137 | –
N#Cc1ccccc1S(=O)(=O)N1CCN(C(=O)CCl)CC1 [PCM-0102395, N#Cc1ccccc1S(=O)(=O)N1CCN(C(=O)CCl)CC1] | 0% | -15.498 | -15.498 | 28% | – | – | – | –
O=C(CCl)N1CCN(Cc2ccccc2)C1=O [PCM-0102919, O=C(CCl)N1CCN(Cc2ccccc2)C1=O] | – | – | – | 0% | 10% | -18.275 | -18.275 | –
O=C(CCl)Nc1cc2c(cc1Cl)OCO2 [PCM-0102209, O=C(CCl)Nc1cc2c(cc1Cl)OCO2] | 27% | -16.385 | -16.385 | 13% | – | – | – | –
CN(Cc1ccc(Cl)s1)C(=O)CCl [PCM-0102898, CN(Cc1ccc(Cl)s1)C(=O)CCl] | – | – | – | 29% | 0% | -15.575 | -15.575 | –
CC(C)N(C)C(=O)C1CCN(C(=O)CCl)CC1 [PCM-0102974, CC(C)N(C)C(=O)C1CCN(C(=O)CCl)CC1] | – | – | – | 0% | 0% | -15.247 | -15.247 | –
COc1ccccc1NC(=O)CCl [PCM-0102236, COc1ccccc1NC(=O)CCl] | 28% | -16.359 | -16.359 | 0% | – | – | – | –
CSc1ccc(NC(=O)CCl)cc1 [PCM-0102772, CSc1ccc(NC(=O)CCl)cc1] | – | – | – | 13% | 28% | -15.893 | -15.893 | –
CC(=O)c1cccc(NC(=O)CCl)c1 [PCM-0102965, CC(=O)c1cccc(NC(=O)CCl)c1] | – | – | – | 0% | 36% | -15.751 | -15.751 | –
O=C(CCl)Nc1oncc1-c1ccccc1 [PCM-0102746, O=C(CCl)Nc1oncc1-c1ccccc1] | – | – | – | 0% | 64% | -16.489 | -16.489 | –
Cc1ccc(-n2nc(C)cc2NC(=O)CCl)cc1 [PCM-0102224, Cc1ccc(-n2nc(C)cc2NC(=O)CCl)cc1] | 35% | -16.116 | -16.116 | 0% | – | – | – | –
O=C(CCl)N1CCCC(c2nc3ccccc3s2)C1 (stereo not drawn) [PCM-0102425, O=C(CCl)N1CCCC(c2nc3ccccc3s2)C1] | 0% | -15.591 | -15.591 | 28% | – | – | – | –
